Consider 37 compounds from patent US20050096327A1, “Novel norepinephrine reuptake inhibitors for the treatment of central nervous system disorders” (priority 2003, published 2005).

As a reminder, the Ki is a dissociation constant, usually derived from enzyme kinetics or from competition with a known ligand. High values mean lower affinity, low ones higher affinity.

Structures can show the parent of a compound that is named as a salt.

The target in this assay is T1, human norepinephrine transporter (Homo sapiens, UniProt P23975).
T1 construct: host or cells: HEK-293
T1 sequence (P23975 whole entry): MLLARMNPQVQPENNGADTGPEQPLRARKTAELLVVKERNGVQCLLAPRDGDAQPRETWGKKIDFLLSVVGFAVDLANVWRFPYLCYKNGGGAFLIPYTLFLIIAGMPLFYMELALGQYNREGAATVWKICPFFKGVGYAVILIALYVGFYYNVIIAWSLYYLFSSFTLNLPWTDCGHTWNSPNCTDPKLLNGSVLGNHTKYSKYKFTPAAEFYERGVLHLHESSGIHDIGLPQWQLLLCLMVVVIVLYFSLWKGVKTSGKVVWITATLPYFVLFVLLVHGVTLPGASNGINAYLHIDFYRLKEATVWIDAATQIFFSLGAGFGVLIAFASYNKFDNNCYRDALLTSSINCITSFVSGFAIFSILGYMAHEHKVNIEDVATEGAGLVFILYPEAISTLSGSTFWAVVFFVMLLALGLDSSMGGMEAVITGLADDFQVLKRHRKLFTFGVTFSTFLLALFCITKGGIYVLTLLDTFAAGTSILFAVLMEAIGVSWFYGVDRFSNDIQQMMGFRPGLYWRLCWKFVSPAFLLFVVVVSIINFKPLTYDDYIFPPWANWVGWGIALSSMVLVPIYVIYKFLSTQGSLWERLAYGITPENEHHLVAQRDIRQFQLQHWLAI
In words: hNET receptor binding ([125I]-RTI-55, membranes of transfected HEK-293 cells). The settings on record: 50 pM [125I]-RTI-55, 90 min room temperature; IC50 converted by Cheng-Prusoff. As to the method:
Cell pastes of HEK-293 cells transfected with the human norepinephrine transporter were supplied by the Pfizer Ann Arbor Protein Expression and Production group. Pellets were resuspended in 400 to 700 ml of Krebs-HEPES assay buffer (25 mM HEPES, 122 mM NaCl, 3 mM KCl, 1.2 mM MgSO4, 1.3 mM CaCl2, and 11 mM glucose, pH 7.4) with a Polytron homogenizer at setting 7 for 30 sec. Aliquots of membranes (5 mg/ml protein) were stored in liquid nitrogen until used.
The binding assay was set up in Beckman deep-well polypropylene plates with a total volume of 250 μl containing: drug (10^−5M to 10^−12M), cell membranes, and 50 pM [^125I]-RTI-55 (Perkin Elmer, NEX-272; specific activity 2200 Ci/mmol). The reaction was incubated by gentle agitation for 90 min at room temperature and was terminated by filtration through Whatman GF/C filter plates using a Brandel 96-well plate harvester. Scintillation fluid (100 μl) was added to each well, and bound [^125I]-RTI-55 was determined using a Wallac Trilux Beta Plate Counter. Test compounds were run in duplicate, and specific binding was defined as the difference between binding in the presence and absence of 10 μM desipramine.
Excel and GraphPad Prism software were used for data calculation and analysis. IC50 values were converted to Ki values using the Cheng-Prusoff equation. The Ki values for the hNET are reported below in Table 1.
Regarding `Cc1ccccc1-c1nc(C2CCCNC2)nc2ccccc12` (stereo not shown) [Example 78, 2-Piperidin-3-yl-4-o-tolyl-quinazoline], affinity was put at a Ki of 19.8 nM. Next, `CN1CCC(c2nc(-c3c(F)cccc3Cl)c3ccccc3n2)CC1` [Example 74, 4-(2-Chloro-6-fluoro-phenyl)-2-(1-methyl-piperidin-4-yl)-quinazoline]: 22.9 nM. The compound `CN1CCN(c2nc(-c3ccccc3Cl)c3ccccc3n2)CC1` [Example 19, 4-(2-Chloro-phenyl)-2-(4-methyl-piperazin-1-yl)-quinazoline] showed a Ki of 26.7 nM. The result for `Fc1cccc(-c2nc(N3CCNCC3)nc3ccccc23)c1` [Example 60, 4-(3-Fluoro-phenyl)-2-piperazin-1-yl-quinazoline] reads 4.1 nM; that for `c1ccc(-c2nc(N3CC4CC3CN4)nc3ccccc23)cc1` (stereo not shown) [Example 10, 2-(2,5-Diaza-bicyclo[2.2.1]hept-2-yl)-4-phenyl-quinazoline hydrochloride], 3.4 nM; that for `CN1CCC(c2nc(-c3cccc(F)c3)c3ccccc3n2)CC1` [Example 67, 4-(3-Fluoro-phenyl)-2-(1-methyl-piperidin-4-yl)-quinazoline], 53.5 nM. Next, `Fc1ccccc1-c1nc(C2CCNCC2)nc2ccccc12` [Example 41, 4-(2-Fluoro-phenyl)-2-(piperidin-4-yl)-quinazoline hydrochloride]: 4 nM; `C[C@@H]1CN(c2nc(-c3ccccc3)c3ccccc3n2)CCN1` [Example 31, (R)-(+)-2-(3-Methyl-piperazin-1-yl)-4-phenyl-quinazoline]: 34.5 nM; `Clc1ccccc1-c1nc(N2CCNCC2)nc2ccccc12` [Example 22, 4-(2-Chloro-phenyl)-2-piperazin-1-yl-quinazoline hydrochloride]: 4.8 nM. The result for `Fc1cccc(F)c1-c1nc(C2CCNCC2)nc2ccccc12` [Example 70, 4-(2,6-Difluoro-phenyl)-2-piperidin-4-yl-quinazoline] reads 2.9 nM; that for `Fc1ccccc1-c1nc(C2CCCNC2)nc2ccccc12` (stereo not shown) [Example 77, 4-(2-Fluoro-phenyl)-2-piperidin-3-yl-quinazoline], 22.8 nM. As for `COc1ccccc1-c1nc(N2CCNCC2)nc2ccccc12` [Example 23, 4-(2-Methoxy-phenyl)-2-piperazin-1-yl-quinazoline hydrochloride], the Ki was 29.5 nM. `c1ccc(-c2nc(N3CCNCC3)nc3ccccc23)cc1` [Example 3, 4-Phenyl-2-piperazin-1-yl-quinazoline]: the Ki was found to be 4.8 nM. In turn, `CN1CCC(c2nc(-c3ccccc3F)c3ccccc3n2)CC1` [Example 43, 4-(2-Fluoro-phenyl)-2-(1-methyl-piperidin-4-yl)-quinazoline] displayed a Ki of 29.2 nM. In turn, `Fc1cccc(-c2nc(C3CCNCC3)nc3ccccc23)c1` [Example 66, 4-(3-Fluoro-phenyl)-2-piperidin-4-yl-quinazoline] had a Ki of 5.5 nM. In the case of `CN1CCC(c2nc(-c3ccccc3Cl)c3ccccc3n2)CC1` [Example 44, 4-(2-Chloro-phenyl)-2-(1-methyl-piperidin-4-yl)-quinazoline], the Ki turned out to be 62.5 nM.

`Fc1ccccc1-c1nc(N2CC3CCCC(C2)N3)nc2ccccc12` [Example 33, 2-(3,9-Diaza-bicyclo[3.3.1]non-3-yl)-4-(2-fluoro-phenyl-quinazoline hydrochloride] showed a Ki of 19 nM. In the case of `Fc1ccc(F)c(-c2nc(C3CCNCC3)nc3ccccc23)c1F` [Example 73, 2-Piperidin-4-yl-4-(2,3,6-trifluoro-phenyl)-quinazoline], the affinity, expressed as Ki, was 15.9 nM. The result for `CN[C@H]1CCN(c2nc(-c3ccccc3F)c3ccccc3n2)C1` [Example 35, (S)-(+)-1-[4-(2-Fluoro-phenyl)-quinazolin-2-yl]-pyrrolidin-3-yl}-methyl-amine hydrochloride] reads 19.3 nM; that for “4-(2,4-Difluoro-phenyl)-2-piperazin-1-yl)-quinazoline hydrochloride [Example 38]”, 2 nM. Next, `Fc1ccc(-c2nc(N3CCNCC3)nc3ccccc23)c(Cl)c1` [Example 61, 4-(2-Chloro-4-fluoro-phenyl)-2-piperazin-1-yl-quinazoline]: 6.9 nM. The compound `Clc1cccc(Cl)c1-c1nc(N2CCNCC2)nc2ccccc12` [Example 63, 4-(2,6-Dichloro-phenyl)-2-piperazin-1-yl-quinazoline] registered a Ki of 17.6 nM. Compound `Clc1ccccc1-c1nc(C2CCNCC2)nc2ccccc12` [Example 45, 4-(2-Chloro-phenyl)-2-piperidin-4-yl-quinazoline hydrochloride] had a Ki of 8.7 nM. On to `Fc1cccc(F)c1-c1nc(N2CCNCC2)nc2ccccc12` [Example 29, 4-(2,6-Difluoro-phenyl)-2-piperazin-4-yl-quinazoline hydrochloride], for which the Ki amounted to 4.8 nM. As for “2-Piperazin-1-yl-4-s-tolyl-quinazoline hydrochloride [Example 53]”, the Ki turned out to be 10.5 nM.

`Cc1ccccc1-c1nc(C2CCNCC2)nc2ccccc12` [Example 76, 2-Piperidin-4-yl-4-o-tolyl-quinazoline]: the Ki is 44.7 nM. On to `Fc1cccc(F)c1-c1nc(N[C@H]2CCNC2)nc2ccccc12` [Example 58], for which the Ki turned out to be 8 nM. The result for `c1ccc(-c2nc(N3CC4CC3CN4)nc3ccccc23)cc1` (stereo not shown) [Example 80, 2-(2,5-Diaza-bicyclo[2.2.1]hept-2-yl)-4-phenyl-quinazoline] reads 9.5 nM; that for `Fc1cccc(Cl)c1-c1nc(C2CCNCC2)nc2ccccc12` [Example 75, 4-(2-Chloro-6-fluoro-phenyl)-2-piperidin-4-yl-quinazoline], 5.9 nM; that for `c1ccc(-c2nc(N[C@H]3CCNC3)nc3ccccc23)cc1` [Example 17, (S)-(−)-3-(4-Phenyl-quinazolin-2-yl)-aminopyrrolidine hydrochloride], 45 nM. Next, `Fc1ccc2c(-c3ccccc3F)nc(C3CCNCC3)nc2c1` [Example 65, 7-Fluoro-4-(2-fluoro-phenyl)-2-piperidin-4-yl-quinazoline]: 3.3 nM. The result for `Fc1ccc(-c2nc(C3CCNCC3)nc3ccccc23)c(F)c1` [Example 72, 4-(2,4-Difluoro-phenyl)-2-piperidin-4-yl-quinazoline] reads 17.7 nM; that for `c1ccc(-c2nc(C3CCNCC3)nc3ccccc23)cc1` [Example 42, 4-Phenyl-2-piperidin-4-yl-quinazoline hydrochloride], 13.3 nM. `Fc1ccc2nc(C3CCNCC3)nc(-c3ccccc3F)c2c1` [Example 64, 6-Fluoro-4-(2-fluoro-phenyl)-2-piperidin-4-yl-quinazoline] displayed a Ki of 17.7 nM. As to `Fc1ccc(-c2nc(C3CCNCC3)nc3ccccc23)cc1` [Example 68, 4-(4-Fluoro-phenyl)-2-piperidin-4-yl-quinazoline], the Ki worked out at 40.6 nM. The result for `Fc1ccccc1-c1nc(C2(c3ccccc3)CCNCC2)nc2ccccc12` [Example 79, 4-(2-Fluoro-phenyl)-2-(4-phenyl-piperidin-4-yl)-quinazoline] reads 63.4 nM; that for `CN1CCC(c2nc(-c3c(F)cccc3F)c3ccccc3n2)CC1` [Example 69, 4-(2,6-Difluoro-phenyl)-2-(1-methyl-piperidin-4-yl)-quinazoline], 37.9 nM.
